Measurements: ChEMBL document CHEMBL1287678, “5-{2-[4-(2-methyl-5-quinolinyl)-1-piperazinyl]ethyl}-2(1H)-quinolinones and 3,4-dihydro-2(1H)-quinolinones: dual-acting 5-HT1 receptor antagonists and serotonin reuptake inhibitors. Part 3” (Bioorg Med Chem Lett, 2010)

How the values were obtained:
[1] = target: T1, 5-hydroxytryptamine receptor 1A (Homo sapiens, UniProt P08908); assay: Antagonist activity at human 5-HT1A receptor expressed in HEK293 cells assessed as inhibition of GTPgammaS binding by scintillation proximity assay; type: functional, cell-based
T1 sequence (P08908 whole entry): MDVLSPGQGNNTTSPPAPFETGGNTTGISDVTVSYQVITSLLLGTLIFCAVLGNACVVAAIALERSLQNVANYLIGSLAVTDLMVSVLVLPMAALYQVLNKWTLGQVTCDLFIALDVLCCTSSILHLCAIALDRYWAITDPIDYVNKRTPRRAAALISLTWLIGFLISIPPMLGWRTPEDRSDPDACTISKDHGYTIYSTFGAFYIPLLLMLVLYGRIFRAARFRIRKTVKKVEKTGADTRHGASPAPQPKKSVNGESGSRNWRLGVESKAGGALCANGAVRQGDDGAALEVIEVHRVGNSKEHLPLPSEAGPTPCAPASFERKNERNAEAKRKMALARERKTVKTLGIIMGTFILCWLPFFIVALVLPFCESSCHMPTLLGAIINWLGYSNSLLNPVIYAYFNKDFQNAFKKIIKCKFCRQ

[2] = target: T2, 5-hydroxytryptamine receptor 1B (Homo sapiens, UniProt P28222); assay: Antagonist activity at human 5-HT1B receptor expressed in CHO cells assessed as inhibition of GTPgammaS binding by scintillation proximity assay; type: functional, cell-based
[3] = target: T3, 5-hydroxytryptamine receptor 1D (Homo sapiens, UniProt P28221); assay: Antagonist activity at human 5-HT1D receptor expressed in CHO cells assessed as inhibition of GTPgammaS binding by scintillation proximity assay; type: functional, cell-based
[4] = target: Sodium-dependent serotonin transporter (Homo sapiens, UniProt P31645); assay: Displacement of [3H]-citalopram in human SERT expressed in LLCPK cells by filtration assay; type: cell-based
[5] = target: Voltage-gated inwardly rectifying potassium channel KCNH2 (Homo sapiens, UniProt Q12809); assay: Displacement of [3H]-dofetilide in human hERG expressed in CHO cells by proximity assay; type: cell-based
[6] = target: T4, 5-hydroxytryptamine receptor 1A (Homo sapiens) (UniProt P08908); assay: Intrinsic activity at human 5-HT1A receptor expressed in HEK293 cells assessed as effect on GTPgammaS binding by scintillation proximity assay relative to 5HT; type: functional, cell-based
T4 sequence (whole entry): T1 sequence (P08908 whole entry)

[7] = target: T2, 5-hydroxytryptamine receptor 1B; assay: Intrinsic activity at human 5-HT1B receptor expressed in CHO cells assessed as effect on GTPgammaS binding by scintillation proximity assay relative to 5HT; type: functional, cell-based
[8] = target: T3, 5-hydroxytryptamine receptor 1D; assay: Intrinsic activity at human 5-HT1D receptor expressed in CHO cells assessed as effect on GTPgammaS binding by scintillation proximity assay relative to 5HT; type: functional, cell-based
Liver microsomes = assay: Intrinsic clearance in human liver microsomes; type: ADME, Microsome
[9] = Blood clearance in rat at 0.5 mg/kg, iv and 1 mg/kg, po; type: ADME, organism-based; conditions: whole blood
[10] = Volume of distribution at steady state in rat at 0.5 mg/kg, iv and 1 mg/kg, po; type: ADME, organism-based; conditions: in vivo, read-out: Vdss
[11] = Half life in rat at 0.5 mg/kg, iv and 1 mg/kg, po; type: ADME, organism-based; conditions: in vivo
[12] = Oral bioavailability in rat at 1 mg/kg; type: ADME, organism-based; conditions: in vivo
[13] = Ratio of drug level in brain to blood in rat at 0.5 mg/kg, iv and 1 mg/kg, po; type: ADME, organism-based; conditions: brain / whole blood
[14] = target: T2, 5-hydroxytryptamine receptor 1B; assay: Agonist activity at human 5-HT1B receptor expressed in CHO cells assessed as stimulation of GTPgammaS binding by scintillation proximity assay; type: functional, cell-based
[15] = target: T3, 5-hydroxytryptamine receptor 1D; assay: Agonist activity at human 5-HT1D receptor expressed in CHO cells assessed as stimulation of GTPgammaS binding by scintillation proximity assay; type: functional, cell-based
[16] = target: T1, 5-hydroxytryptamine receptor 1A; assay: Agonist activity at human 5-HT1A receptor expressed in HEK293 cells assessed as stimulation of GTPgammaS binding by scintillation proximity assay; type: functional, cell-based

T3 sequence (P28221 whole entry): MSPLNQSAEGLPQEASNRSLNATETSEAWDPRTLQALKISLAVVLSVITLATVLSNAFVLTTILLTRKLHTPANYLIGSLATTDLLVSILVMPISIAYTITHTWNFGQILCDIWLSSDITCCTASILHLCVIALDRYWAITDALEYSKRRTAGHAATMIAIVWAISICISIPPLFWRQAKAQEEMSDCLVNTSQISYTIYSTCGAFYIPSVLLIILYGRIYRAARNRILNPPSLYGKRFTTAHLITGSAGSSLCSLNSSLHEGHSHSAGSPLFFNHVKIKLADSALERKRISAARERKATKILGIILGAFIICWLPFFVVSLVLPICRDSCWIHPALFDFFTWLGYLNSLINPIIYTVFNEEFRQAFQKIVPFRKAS
Sequence of Sodium-dependent serotonin transporter (P31645 whole entry): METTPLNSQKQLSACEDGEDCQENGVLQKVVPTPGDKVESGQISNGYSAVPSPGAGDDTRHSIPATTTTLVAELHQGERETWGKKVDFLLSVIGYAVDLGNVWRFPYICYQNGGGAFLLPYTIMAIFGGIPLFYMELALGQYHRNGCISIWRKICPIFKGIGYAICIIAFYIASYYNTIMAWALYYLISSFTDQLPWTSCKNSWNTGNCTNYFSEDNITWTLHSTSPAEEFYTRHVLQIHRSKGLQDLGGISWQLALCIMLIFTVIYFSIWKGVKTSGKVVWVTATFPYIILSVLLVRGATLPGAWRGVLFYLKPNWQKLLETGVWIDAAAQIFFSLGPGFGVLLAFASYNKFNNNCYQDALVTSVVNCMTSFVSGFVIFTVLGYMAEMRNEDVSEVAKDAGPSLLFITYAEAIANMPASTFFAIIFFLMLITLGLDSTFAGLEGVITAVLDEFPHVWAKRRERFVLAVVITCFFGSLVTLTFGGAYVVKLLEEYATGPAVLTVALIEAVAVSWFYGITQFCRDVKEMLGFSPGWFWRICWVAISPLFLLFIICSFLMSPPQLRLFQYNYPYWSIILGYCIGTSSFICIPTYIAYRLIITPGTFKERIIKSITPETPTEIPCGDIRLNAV
Sequence of Voltage-gated inwardly rectifying potassium channel KCNH2 (Q12809 whole entry): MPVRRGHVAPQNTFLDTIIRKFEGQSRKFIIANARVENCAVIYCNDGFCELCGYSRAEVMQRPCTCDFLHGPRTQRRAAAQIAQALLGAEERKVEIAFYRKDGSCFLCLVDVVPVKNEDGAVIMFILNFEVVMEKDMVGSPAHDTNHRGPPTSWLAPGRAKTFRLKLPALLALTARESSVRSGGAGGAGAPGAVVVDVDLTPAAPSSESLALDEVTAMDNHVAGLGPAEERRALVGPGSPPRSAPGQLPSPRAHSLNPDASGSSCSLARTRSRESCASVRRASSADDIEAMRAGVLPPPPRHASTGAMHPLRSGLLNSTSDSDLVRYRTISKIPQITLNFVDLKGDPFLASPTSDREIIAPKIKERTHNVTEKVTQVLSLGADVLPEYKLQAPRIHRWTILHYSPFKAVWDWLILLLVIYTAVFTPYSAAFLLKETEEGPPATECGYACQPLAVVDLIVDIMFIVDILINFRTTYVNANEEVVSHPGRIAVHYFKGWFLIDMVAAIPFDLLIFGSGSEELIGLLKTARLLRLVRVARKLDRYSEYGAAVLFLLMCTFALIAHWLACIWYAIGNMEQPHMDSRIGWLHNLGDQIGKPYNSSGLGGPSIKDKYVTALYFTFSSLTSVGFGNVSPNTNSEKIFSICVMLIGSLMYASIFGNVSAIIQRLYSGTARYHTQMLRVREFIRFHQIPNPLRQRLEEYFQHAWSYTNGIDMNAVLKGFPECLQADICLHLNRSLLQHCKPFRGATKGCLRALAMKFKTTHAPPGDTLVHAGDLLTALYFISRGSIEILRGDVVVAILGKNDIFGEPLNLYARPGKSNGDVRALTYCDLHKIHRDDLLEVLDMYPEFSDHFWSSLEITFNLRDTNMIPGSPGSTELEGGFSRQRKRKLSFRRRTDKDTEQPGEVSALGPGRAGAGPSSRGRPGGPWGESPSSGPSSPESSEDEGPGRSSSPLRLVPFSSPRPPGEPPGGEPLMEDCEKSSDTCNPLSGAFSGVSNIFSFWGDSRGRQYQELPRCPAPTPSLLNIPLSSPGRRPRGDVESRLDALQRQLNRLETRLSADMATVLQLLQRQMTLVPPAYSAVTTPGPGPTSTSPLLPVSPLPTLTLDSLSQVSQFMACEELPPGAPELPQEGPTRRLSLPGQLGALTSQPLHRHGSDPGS
T2 sequence (P28222 whole entry): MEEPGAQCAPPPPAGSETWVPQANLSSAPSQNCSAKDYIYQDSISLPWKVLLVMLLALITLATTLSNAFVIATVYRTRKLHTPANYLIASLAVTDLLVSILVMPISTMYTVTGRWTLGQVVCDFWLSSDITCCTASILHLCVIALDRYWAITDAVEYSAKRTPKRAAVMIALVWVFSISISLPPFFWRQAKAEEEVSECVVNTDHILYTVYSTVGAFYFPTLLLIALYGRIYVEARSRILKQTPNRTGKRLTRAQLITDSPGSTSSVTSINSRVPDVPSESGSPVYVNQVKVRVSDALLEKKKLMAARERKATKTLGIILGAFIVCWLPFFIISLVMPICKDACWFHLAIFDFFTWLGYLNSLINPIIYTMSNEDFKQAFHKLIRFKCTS

Row | SMILES | Ki [1] | Ki [2] | Ki [3] | Ki [4] | Ki [5] | Intrinsic activity [6] | Intrinsic activity [7] | Intrinsic activity [8] | CL (Liver microsomes) | clearance [9] | Vd [10] | half-life [11] | bioavailability [12] | Kp [13] | EC50 [14] | EC50 [15] | EC50 [16]
1 | Cc1ccc2c(N3CCN(CCc4c(F)ccc5c4ccc(=O)n5C)CC3)cccc2n1 | 0.398 nM | 31.6 nM | 0.398 nM | 12.6 nM | 31600 nM | 0 | 0 | 0 |  |  |  |  |  |  |  |  | 
2 | Cc1ccc2c(N3CCN(CCc4cccc5c4CCC(=O)N5)CC3)cccc2n1 |  |  |  |  |  | 0 | 0 | 0 |  |  |  |  |  |  |  |  | 
3 | Cc1ccc2c(N3CCN(CCc4cccc5[nH]c(=O)ccc45)CC3)cccc2n1 |  |  |  |  |  | 0 | 0 | 0 |  |  |  |  |  |  |  |  | 
4 | Cc1ccc2c(N3CCN(CCc4cccc5c4ccc(=O)n5C)[C@@H](C)C3)cc(F)cc2n1 | 1 nM | 316 nM | 1.26 nM | 0.501 nM | 6310 nM | 0 | 0 | 0 | 0.8 mL/min/g | 34 mL/min/kg | 2 L/kg | 1.6 h | 34% | 1.2 |  |  | 
5 | Cc1ccc2c(N3CCN(CCc4c(C)ccc5c4ccc(=O)n5C)[C@H](C)C3)cccc2n1 | 1.26 nM | > 1000 nM | 2.51 nM | 3.98 nM | 7940 nM | 0 |  | 0 | 1.2 mL/min/g | 21 mL/min/kg | 2.1 L/kg | 1.5 h | 31% | 0.4 |  |  | 
6 | Cc1ccc2c(N3CCN(CCc4c(C)ccc5c4ccc(=O)n5C)CC3)cccc2n1 | 0.631 nM |  | 2 nM | 12.6 nM | 3980 nM | 0 | 0.4 | 0 | 1.5 mL/min/g | 28 mL/min/kg | 2.3 L/kg | 1.1 h | 88% | 0.5 | 63.1 nM |  | 
7 | Cc1ccc2c(N3CCN(CCc4cccc5c4CCC(=O)N5C)CC3)cccc2n1 | 0.631 nM | 0.794 nM | 0.0794 nM | 12.6 nM | 3980 nM | 0 | 0 | 0 |  |  |  |  |  |  |  |  | 
8 | Cc1ccc2c(N3CCN(CCc4cccc5c4ccc(=O)n5C)[C@H](C)C3)cc(F)cc2n1 | 1 nM | 0.794 nM | 0.126 nM | 0.501 nM | 10000 nM | 0 | 0 | 0 |  |  |  |  |  |  |  |  | 
9 | Cc1ccc2c(N3CCN(CCc4c(C)ccc5c4CCC(=O)N5)CC3)cccc2n1 | 0.794 nM |  |  | 50.1 nM | 3980 nM | 0.3 | 0.4 | 0.5 | < 0.5 mL/min/g | 7 mL/min/kg | 3 L/kg | 5.4 h | 73% | 0.8 | 200 nM | 5.01 nM | 
10 | Cc1ccc2c(N3CCN(CCc4c(C)ccc5c4CCC(=O)N5C)CC3)cccc2n1 | 0.631 nM |  | 1 nM | 25.1 nM | 794 nM | 0 | 0.4 | 0 | 1.3 mL/min/g | 9 mL/min/kg | 2 L/kg | 3 h | 83% | 0.4 | 398 nM |  | 
11 | Cc1ccc2c(N3CCN(CCc4c(Cl)ccc5c4ccc(=O)n5C)CC3)cccc2n1 | 3.98 nM |  | 3.98 nM | 15.8 nM |  | 0 | 0.5 | 0 |  |  |  |  |  |  | 316 nM |  | 
12 | Cc1ccc2c(N3CCN(CCc4cccc5c4ccc(=O)n5C)C(C)(C)C3)cccc2n1 | 1.58 nM | 0.501 nM | 0.501 nM |  |  | 0.3 |  | 0 | 3.8 mL/min/g | 34 mL/min/kg | 0.8 L/kg | 0.6 h | 27% | 1.1 |  |  | 
13 | Cc1ccc2c(N3CCN(CCc4c(C)ccc5c4ccc(=O)n5C)[C@@H](C)C3)cc(F)cc2n1 | 3.98 nM | > 1000 nM | > 1000 nM | 1 nM |  | 0 |  |  |  |  |  |  |  |  |  |  | 
14 | Cc1ccc2c(N3CCN(CCc4c(C)ccc5[nH]c(=O)ccc45)CC3)cccc2n1 | 1 nM |  |  | 100 nM |  | 0 | 0.4 | 0 |  |  |  |  |  |  | 501 nM |  | 
15 | Cc1ccc2c(N3CCN(CCc4c(C)ccc5c4ccc(=O)n5C)CC3)cc(F)cc2n1 | 1.26 nM | > 1000 nM | 2 nM | 10 nM | 2510 nM | 0 |  | 0 | 1.6 mL/min/g | 46 mL/min/kg | 2.4 L/kg | 0.7 h | 82% |  |  |  | 
16 | Cc1ccc2c(N3CCN(CCc4cccc5c4OCC(=O)N5)CC3)cccc2n1 |  |  |  |  |  |  |  |  | 1 mL/min/g |  |  |  |  |  |  |  | 
17 | Cc1ccc2c(N3CCN(CCc4c(C)ccc5c4ccc(=O)n5C)[C@@H](C)C3)cccc2n1 | 3.98 nM | > 1000 nM | 20 nM | 0.501 nM | 1580 nM | 0 |  | 0 | < 0.5 mL/min/g | 46 mL/min/kg | 2.7 L/kg | 1.2 h | 35% | 1.7 |  |  | 
18 | Cc1ccc2c(C3CCN(CCc4c(C)ccc5c4ccc(=O)n5C)CC3)cccc2n1 | 1.26 nM | > 1000 nM | 39.8 nM | 1.26 nM | 2000 nM | 0 |  | 0 | 0.9 mL/min/g | 31 mL/min/kg | 3.4 L/kg | 1.4 h | 82% | 0.8 |  |  | 
19 | Cc1ccc2c(N3CCN(CCc4cccc5c4ccc(=O)n5C)[C@@H](C)C3)cccc2n1 | 3.16 nM | 398 nM | 5.01 nM | 2.51 nM | 5010 nM | 0 | 0 | 0 | 1.5 mL/min/g | 32 mL/min/kg | 1.2 L/kg | 0.6 h | 12% | 1.3 |  |  | 
20 | Cc1ccc2c(N3CCN(CCc4cccc5c4ccc(=O)n5C)CC3)cccc2n1 |  | 0.794 nM |  | 2.51 nM | 10000 nM | 0.4 | 0 | 0.7 | 1.2 mL/min/g | 32 mL/min/kg | 2.1 L/kg | 1.3 h | 37% | 1.1 |  | 1 nM | 0.0316 nM
21 | Cc1ccc2c(N3CCN(CCc4cccc5c4OCC(=O)N5C)CC3)cccc2n1 |  |  |  |  |  |  |  |  | 2.4 mL/min/g |  |  |  |  |  |  |  | 
